The assay addresses T1, TLR8 (Homo sapiens, UniProt Q9NR97).
T1 sequence (Q9NR97 27-1041): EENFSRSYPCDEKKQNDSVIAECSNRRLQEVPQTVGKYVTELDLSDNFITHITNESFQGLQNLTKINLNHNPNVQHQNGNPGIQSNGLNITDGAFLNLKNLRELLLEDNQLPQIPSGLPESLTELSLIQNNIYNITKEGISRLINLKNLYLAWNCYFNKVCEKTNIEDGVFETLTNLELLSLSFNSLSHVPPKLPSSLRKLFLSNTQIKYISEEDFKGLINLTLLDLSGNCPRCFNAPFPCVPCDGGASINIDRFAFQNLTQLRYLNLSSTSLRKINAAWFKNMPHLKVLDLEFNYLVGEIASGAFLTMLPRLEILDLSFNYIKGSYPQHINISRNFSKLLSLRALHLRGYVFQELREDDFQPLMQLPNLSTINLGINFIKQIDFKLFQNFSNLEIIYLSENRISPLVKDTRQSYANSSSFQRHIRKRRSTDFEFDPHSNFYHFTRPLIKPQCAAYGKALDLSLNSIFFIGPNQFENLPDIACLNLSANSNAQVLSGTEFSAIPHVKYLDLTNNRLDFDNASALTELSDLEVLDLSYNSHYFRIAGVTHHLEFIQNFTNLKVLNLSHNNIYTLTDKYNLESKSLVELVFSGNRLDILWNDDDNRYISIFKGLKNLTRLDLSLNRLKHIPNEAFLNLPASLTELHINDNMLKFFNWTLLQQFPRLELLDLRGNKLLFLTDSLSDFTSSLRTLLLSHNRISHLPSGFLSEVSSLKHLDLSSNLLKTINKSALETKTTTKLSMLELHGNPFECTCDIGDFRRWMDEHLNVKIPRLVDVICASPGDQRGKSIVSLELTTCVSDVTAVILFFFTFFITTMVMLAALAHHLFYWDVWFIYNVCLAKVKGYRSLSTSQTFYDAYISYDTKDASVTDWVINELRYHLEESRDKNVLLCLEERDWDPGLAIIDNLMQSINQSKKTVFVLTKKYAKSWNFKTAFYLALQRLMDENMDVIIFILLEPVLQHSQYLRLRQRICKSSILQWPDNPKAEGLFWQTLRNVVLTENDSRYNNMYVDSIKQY
In words: Inhibition of TL8-506-stimulated NF-κB activity (SEAP reporter, QuantiBlue) in hTLR8-HEK293 reporter cells. The assay is classed as cell-based. Also on record: host or cells: HEK293 (HEK-Blue hTLR8). Conditions: for inhibition at 10 µM: read-out: % inhibition at 10 µM ± SEM (NF-κB activity); for IC50: read-out: IC50 [μM] (95% CI) hTLR8-HEK293, inhibition of NF-κB activity, 1 h preincubation.

Where [1] appears, read: 10 µM compound, TL8-506 (0.6 μM) 24 h, hTLR8-HEK293.

Regarding `Cc1noc(C)c1COc1cccc(C(=O)N2CCCC(C)C2CN)c1` (centres unmarked) [Compound 2], under setting [1], the inhibition at 10 µM came to 3 ± 2%.
As for `Cc1noc(C)c1COc1cccc(C(=O)N2CCN(C)CC2C)c1` (centres unmarked) [Compound 3], the inhibition at 10 µM under setting [1] was -6 ± 2%.
As to `Cc1noc(C)c1COc1ccc(C(=O)NCC(c2c(F)cccc2Cl)N(C)C)cc1` (centres unmarked) [Compound 5], under setting [1], the inhibition at 10 µM is 37 ± 7%.
On to `Cc1noc(C)c1COc1cccc(C(=O)NCCN(C(C)C)C(C)C)c1` [Compound 6], for which the inhibition at 10 µM under setting [1] was 9 ± 4%.
On the same count and under the same terms, as for `Cc1noc(C)c1COc1cccc(C(=O)N2CCCN(Cc3ccc(C(F)(F)F)cc3)CC2)c1` [Compound 7], the figure is 5 ± 7%; as for `CCN1CCC(CNC(=O)c2cccc(OCc3c(C)noc3C)c2)CC1` [Compound 8], 20 ± 4%.
Regarding `COc1cc(C(=O)NCCN2CCCC2)ccc1OCc1c(C)noc1C` [Compound 11], where the note is “TL8-506 (0.6 μM) 24 h”, the IC50 was determined as 6.62 µM.
`Cc1noc(C)c1COc1ccc(C(=O)N2CCN(Cc3ccccc3)CC2)cc1` [Compound 17, 4-Benzylpiperazin-1-yl(4-((3,5-Dimethylisoxazol-4-yl)methoxy)phenyl)methanone]: the “inhibition of NF-κB at 10 μM (in words)” value (hTLR8-HEK293) is reported as “moderate”. Further, the inhibition at 10 µM under setting [1] was found to be 52 ± 4%.
With `Cc1noc(C)c1COc1ccc(C(=O)NCCN2CCCC2)cc1` [Compound 18, 4-((3,5-Dimethylisoxazol-4-yl)methoxy)-N-(2-(pyrrolidin-1-yl)ethyl)benzamide], the inhibition at 10 µM under setting [1] turned out to be 61 ± 3%.
As for `Cc1noc(C)c1COc1ccc(C(=O)NC2CCN(C)C2)cc1` (centres unmarked) [Compound 19, 4-((3,5-Dimethylisoxazol-4-yl)methoxy)-N-(1-methylpyrrolidin-3-yl)benzamide], under setting [1], the inhibition at 10 µM was found to be 89 ± 2%. The half-inhibitory concentration (IC50) (TL8-506 (0.6 μM) 24 h) is 3.06 µM.
For the molecule `Cc1noc(C)c1COc1ccc(C(=O)NN2CCN(C)CC2)cc1` [Compound 20, 4-((3,5-Dimethylisoxazol-4-yl)methoxy)-N-(4-methylpiperazin-1-yl)benzamide], the inhibition at 10 µM under setting [1] was found to be 63 ± 0.7%.
Still for that read-out and setting: as for `Cc1noc(C)c1COc1ccc(C(=O)N2CCC(N3CCCC3)CC2)cc1` [Compound 21, (4-((3,5-Dimethylisoxazol-4-yl)methoxy)phenyl)(4-(pyrrolidin-1-yl)piperidin-1-yl)methanone], the figure is 75 ± 2%.
For the molecule `COc1cc(C(=O)N2CCN(Cc3ccccc3)CC2)ccc1OCc1c(C)noc1C` [Compound 22, (4-Benzylpiperazin-1-yl)(4-((3,5-dimethylisoxazol-4-yl)methoxy)-3-methoxyphenyl)methanone], the “inhibition of NF-κB at 10 μM (in words)” value (hTLR8-HEK293) is recorded as “moderate”. Further, the inhibition at 10 µM under setting [1] was 54 ± 3%.
In the same order, the values of `COc1cc(C(=O)NN2CCN(C)CC2)ccc1OCc1c(C)noc1C` [Compound 23, 4-((3,5-Dimethylisoxazol-4-yl)methoxy)-3-methoxy-N-(4-methylpiperazin-1-yl)benzamide] are “moderate” and 57 ± 3%.
Regarding `COc1cc(C(=O)N2CCC(N3CCCC3)CC2)ccc1OCc1c(C)noc1C` [Compound 24, (4-((3,5-Dimethylisoxazol-4-yl)methoxy)-3-methoxyphenyl)(4-(pyrrolidin-1-yl)piperidin-1-yl)methanone], the inhibition at 10 µM under setting [1] was found to be 96 ± 2%. Moreover, the IC50 (TL8-506 (0.6 μM) 24 h) is 3.46 µM.
In the same order, the values of `COc1cc(C(=O)N2CCC(N3CCCCC3)CC2)ccc1OCc1c(C)noc1C` [Compound 26, [1,4′-Bipiperidin]-1′-yl(4-((3,5-dimethylisoxazol-4-yl)methoxy)-3-methoxyphenyl)methanone] are 77 ± 4% and 18.3 µM.
For the molecule `COc1cc(C(=O)NC2CCN(C)C2)ccc1OCc1c(C)noc1C` (centres unmarked) [Compound 27, 4-((3,5-Dimethylisoxazol-4-yl)methoxy)-3-methoxy-N-(1-methylpyrrolidin-3-yl)benzamide], under setting [1], the inhibition at 10 µM was 84 ± 4%. Further, under “TL8-506 (0.6 μM) 24 h”, the IC50 was found to be 8.15 µM.
As for `COc1cc(C(=O)NC2CCN(C(C)C)CC2)ccc1OCc1c(C)noc1C` [Compound 28, 4-((3,5-Dimethylisoxazol-4-yl)methoxy)-N-(1-isopropylpiperidin-4-yl)-3-methoxybenzamide], the inhibition at 10 µM under setting [1] was 97 ± 1%. For the setting “TL8-506 (0.6 μM) 24 h”, the IC50 was 1.73 µM.
As to `CCN1CCC(NC(=O)c2ccc(OCc3c(C)noc3C)c(OC)c2)C1` (centres unmarked) [Compound 29, 4-((3,5-Dimethylisoxazol-4-yl)methoxy)-N-(1-ethylpyrrolidin-3-yl)-3-methoxybenzamide], the inhibition at 10 µM under setting [1] was 72 ± 5%.
In the case of `COc1cc(C(=O)N2CCN(CCO)CC2)ccc1OCc1c(C)noc1C` [Compound 30, (4-((3,5-Dimethylisoxazol-4-yl)methoxy)-3-methoxyphenyl)(4-(2-hydroxyethyl)piperazin-1-yl)methanone], the “inhibition of NF-κB at 10 μM (in words)” value (hTLR8-HEK293) is reported as “low inhibition”. In addition, under setting [1], the inhibition at 10 µM came out at 24 ± 9%.
As to `CCCN1CCC(NC(=O)c2ccc(OCc3c(C)noc3C)c(OC)c2)CC1` [Compound 31, 4-((3,5-Dimethylisoxazol-4-yl)methoxy)-3-methoxy-N-(1-propylpiperidin-4-yl)benzamide], under setting [1], the inhibition at 10 µM came to 98 ± 0.3%. Further, for the setting “TL8-506 (0.6 μM) 24 h”, the IC50 came to 1.66 µM.
As to `COc1cc(C(=O)NCC2CCN(C)C2)ccc1OCc1c(C)noc1C` (centres unmarked) [Compound 32, 4-((3,5-Dimethylisoxazol-4-yl)methoxy)-3-methoxy-N-((1-methylpyrrolidin-3-yl)methyl)benzamide], the inhibition at 10 µM under setting [1] came to 77 ± 5%.
On the same count and under the same terms, as for `COc1cc(C(=O)NC2CCN(C)CC2)ccc1OCc1c(C)noc1C` [Compound 33, 4-((3,5-Dimethylisoxazol-4-yl)methoxy)-3-methoxy-N-(1-methylpiperidin-4-yl)benzamide], the figure is 94 ± 2%.
For `Cc1noc(C)c1COc1ccc(C(=O)NC2CCN(C)CC2)cc1` [Compound 34, 4-((3,5-Dimethylisoxazol-4-yl)methoxy)-N-(1-methylpiperidin-4-yl)benzamide], under setting [1], the inhibition at 10 µM is 97 ± 0.9%. Also, where the note is “TL8-506 (0.6 μM) 24 h”, the IC50 came out at 1.68 µM.
On the same counts, the results for `Cc1noc(C)c1COc1ccc(C(=O)NC2CCN(C(C)C)CC2)cc1` [Compound 35, 4-((3,5-Dimethylisoxazol-4-yl)methoxy)-N-(1-isopropylpiperidin-4-yl)benzamide] are 99 ± 0.2% and 0.99 µM.
For the molecule `Cc1noc(C)c1COc1ccc(C(=O)N2CCN(CCO)CC2)cc1` [Compound 36, (4-((3,5-Dimethylisoxazol-4-yl)methoxy)phenyl)(4-(2-hydroxyethyl)piperazin-1-yl)methanone], the “inhibition of NF-κB at 10 μM (in words)” value (hTLR8-HEK293) is listed as “low inhibition”. Moreover, the inhibition at 10 µM under setting [1] is 26 ± 2%.
In the case of `Cc1noc(C)c1COc1ccc(C(=O)NCC2CCN(C)C2)cc1` (centres unmarked) [Compound 37, 4-((3,5-Dimethylisoxazol-4-yl)methoxy)-N-((1-methylpyrrolidin-3-yl)methyl)benzamide], the inhibition at 10 µM under setting [1] worked out at 80 ± 2%.
Turning to `CCCN1CCC(NC(=O)c2ccc(OCc3c(C)noc3C)cc2)CC1` [Compound 38, 4-((3,5-Dimethylisoxazol-4-yl)methoxy)-N-(1-propylpiperidin-4-yl)benzamide], under setting [1], the inhibition at 10 µM stood at 100 ± 0.1%. The concentration for half-maximal inhibition (IC50) (TL8-506 (0.6 μM) 24 h) worked out at 0.78 µM.
As to `CCN1CCC(NC(=O)c2ccc(OCc3c(C)noc3C)cc2)CC1` [Compound 39, 4-((3,5-Dimethylisoxazol-4-yl)methoxy)-N-(1-ethylpiperidin-4-yl)benzamide], under setting [1], the inhibition at 10 µM is 100 ± 0.2%. Also, the IC50 (TL8-506 (0.6 μM) 24 h) was 1.1 µM.
Turning to `CCCCN1CCC(NC(=O)c2ccc(OCc3c(C)noc3C)cc2)CC1` [Compound 40, N-(1-Butylpiperidin-4-yl)-4-((3,5-dimethylisoxazol-4-yl)methoxy)benzamide], the inhibition at 10 µM under setting [1] turned out to be 99 ± 0.4%. In addition, the IC50 (TL8-506 (0.6 μM) 24 h) came out at 0.73 µM.
As to `C=CCN1CCC(NC(=O)c2ccc(OCc3c(C)noc3C)cc2)CC1` [Compound 41, N-(1-Allylpiperidin-4-yl)-4-((3,5-dimethylisoxazol-4-yl)methoxy)benzamide], the inhibition at 10 µM under setting [1] was 99 ± 0.7%. Also, where the note is “TL8-506 (0.6 μM) 24 h”, the IC50 stood at 0.5 µM.
`Cc1noc(C)c1COc1ccc(C(=O)NC2CCNCC2)cc1` [Compound 43, 4-((3,5-Dimethylisoxazol-4-yl)methoxy)-N-(piperidin-4-yl)benzamide]: the inhibition at 10 µM under setting [1] was 32%.
For “(4-((3,5-Dimethylisoxazol-4-yl)methoxy)-3-methoxyphenyl)(5-methylhexahydropyrrolo[3,4-c]pyrrol-2(1H)-yl)methanone [Compound 25]”, the “% inhibition at 10 µM ± SEM (NF-κB activity)” value under setting [1] stood at 68 ± 6%.

The record behind these values is paper PMC12613816, “Discovery of Novel Isoxazole-Based Small-Molecule Toll-Like Receptor 8 Antagonists” (Journal of Medicinal Chemistry, 2025).
